The text below walks through data of patent US12344623B2, “Thiazolopyridine derivatives as adenosine receptor antagonists” (Merck Patent GmbH, priority 2019, dated 2025).

Holding throughout (format): cell-based
One test concerns the target human A2A receptor (Homo sapiens, UniProt P29274). Put plainly: Functional A2A receptor activity, recombinant HEK293 cells, cAMP (HTRF), agonist NECA. Also noted: expressed in transfected cells; host or cells: HEK293. As to conditions: read-out: Functional A2A receptor activity, HEK293, cAMP, IC50. How it is done:
(§1) The functional activities of human A2A, A2B, A1 and A3 receptors were determined by quantification of cAMP, being the second messenger for adenosine receptors.
(§2) Cells were seeded into 384-well plates, forskolin, test compounds and agonists (CPA for A1- and IB-MECA for A3-receptor) were added. After 30 min incubation, HTRF reagents (cAMP dynamic 2, Cis Bio) were added and the cellular cAMP levels were determined using the ENVISION (Perkin Elmer) plate reader. Obtained raw data were normalized against the inhibitor control and the neural control (DMSO) and the normalized data were fitted using GeneData software.
On the technique in general: In TR-FRET formats the signal depends on donor and acceptor labels being close together.

Another test concerns the target T1, human A3 receptor (Homo sapiens, UniProt P0DMS8).
T1 construct: expressed in transfected cells; host or cells: CHO
T1 sequence (P0DMS8 1-318): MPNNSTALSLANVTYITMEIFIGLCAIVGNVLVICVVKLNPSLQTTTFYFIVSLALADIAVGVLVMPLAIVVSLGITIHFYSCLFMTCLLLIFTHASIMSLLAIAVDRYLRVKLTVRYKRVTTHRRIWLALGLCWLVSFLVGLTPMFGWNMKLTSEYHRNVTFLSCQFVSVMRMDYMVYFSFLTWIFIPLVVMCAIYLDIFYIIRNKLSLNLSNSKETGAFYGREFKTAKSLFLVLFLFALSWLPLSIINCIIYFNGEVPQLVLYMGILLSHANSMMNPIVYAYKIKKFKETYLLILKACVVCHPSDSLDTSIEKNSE
In words: Functional A3 receptor activity, recombinant CHO cells, cAMP (HTRF), forskolin, agonist IB-MECA. The settings on record: recombinant CHO cells, forskolin, agonist IB-MECA, read-out: Functional A3 receptor activity, CHO, cAMP, IC50. How it is done: as §1
(§3) For human A1 and A3 receptors, recombinant CHO cells, expressing either A1 or A3-receptor, were used. As both receptors couple to Gi proteins, the assay protocol was adapted:
as §2

The target in a further test is T2, human A1 receptor (Homo sapiens, UniProt P30542).
T2 construct: expressed in transfected cells; host or cells: CHO
T2 sequence (P30542 1-326): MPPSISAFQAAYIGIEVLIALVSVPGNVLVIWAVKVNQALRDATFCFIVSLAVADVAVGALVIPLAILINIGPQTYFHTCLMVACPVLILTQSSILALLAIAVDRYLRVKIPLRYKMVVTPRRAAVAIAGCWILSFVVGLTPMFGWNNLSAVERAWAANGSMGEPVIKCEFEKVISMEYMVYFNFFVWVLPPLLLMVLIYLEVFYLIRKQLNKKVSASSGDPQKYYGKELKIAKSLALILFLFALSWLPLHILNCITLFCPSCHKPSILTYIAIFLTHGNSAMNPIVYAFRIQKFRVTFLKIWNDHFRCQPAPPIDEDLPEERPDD
Put plainly: Functional A1 receptor activity, recombinant CHO cells, cAMP (HTRF), forskolin, agonist CPA. As to conditions: recombinant CHO cells, forskolin, agonist CPA, read-out: Functional A1 receptor activity, CHO, cAMP, IC50. How it is done:
as §1, §3, §2

In the next test the target is T3, human A2B receptor (Homo sapiens, UniProt P29275).
T3 construct: expressed in transfected cells; host or cells: HEK293
T3 sequence (P29275 1-332): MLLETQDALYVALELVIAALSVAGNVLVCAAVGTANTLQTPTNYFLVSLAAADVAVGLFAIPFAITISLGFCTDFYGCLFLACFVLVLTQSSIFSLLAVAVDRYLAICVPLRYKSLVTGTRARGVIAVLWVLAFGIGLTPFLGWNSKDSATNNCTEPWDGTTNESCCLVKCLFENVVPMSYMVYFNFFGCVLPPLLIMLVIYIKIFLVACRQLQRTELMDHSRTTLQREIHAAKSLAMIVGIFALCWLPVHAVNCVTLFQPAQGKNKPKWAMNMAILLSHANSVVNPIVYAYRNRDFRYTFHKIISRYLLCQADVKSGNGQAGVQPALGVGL
Put plainly: Functional A2B receptor activity, recombinant HEK293 cells, cAMP (HTRF), agonist NECA. As to conditions: read-out: Functional A2B receptor activity, HEK293, cAMP, IC50. How it is done: as §1, §2

Like-named read-outs stand apart in the source and are kept apart here. A value given as a limit tells only on which side of the number the result lay.

Chain of human A2A receptor (P29274 whole entry): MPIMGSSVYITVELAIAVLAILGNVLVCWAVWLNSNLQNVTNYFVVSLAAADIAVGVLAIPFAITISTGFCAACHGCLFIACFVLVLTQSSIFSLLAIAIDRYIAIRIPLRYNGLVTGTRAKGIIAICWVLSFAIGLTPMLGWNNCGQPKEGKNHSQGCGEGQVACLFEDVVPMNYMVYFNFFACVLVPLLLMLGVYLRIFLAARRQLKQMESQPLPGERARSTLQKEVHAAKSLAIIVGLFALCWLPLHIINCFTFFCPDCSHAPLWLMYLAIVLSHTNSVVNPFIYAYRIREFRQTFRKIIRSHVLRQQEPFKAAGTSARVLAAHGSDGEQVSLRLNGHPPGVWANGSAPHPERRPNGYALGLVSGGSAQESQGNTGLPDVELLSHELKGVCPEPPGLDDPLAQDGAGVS

By IC50 is commonly meant the concentration at which inhibition is half-maximal. In the case of `COc1ccc(-c2cnn(C)c2)c2sc(NC(=O)N3CCC(C)(O)CC3)nc12` [reference compound], the IC50 was less than 0.01 µM at human A2A receptor, less than 1 µM at human A3 receptor (cAMP), less than 1 µM at human A1 receptor (cAMP) and less than 1 µM on human A2B receptor.
Turning to `COc1ncc(C2=CCOC2)c2sc(NC(=O)N3CCC4(CCOCC4)C3)nc12` [Compound 44, N-[7-(2,5-dihydrofuran-3-yl)-4-methoxy-[1,3]thiazolo[4,5-c]pyridin-2-yl]-8-oxa-2-azaspiro[4.5]decane-2-carboxamide], the IC50 was less than 0.1 µM at human A2A receptor, greater than 1 µM on human A3 receptor, greater than 1 µM at human A1 receptor and less than 0.1 µM at human A2B receptor.
As for `COc1ncc(C2=CCOCC2)c2sc(NC(=O)c3cnn(-c4ccccc4)c3)nc12` [Compound 156, 1-Phenyl-1H-pyrazole-4-carboxylic acid [7-(3,6-dihydro-2H-pyran-4-yl)-4-methoxy-thiazolo[4,5-c]pyridin-2-yl]-amide], the IC50 on human A2A receptor is less than 0.01 µM; on human A3 receptor, greater than 1 µM; on human A1 receptor, less than 1 µM; on human A2B receptor it was less than 0.01 µM.
As for `COc1ncc(-c2cnn(C[C@@H]3CCCOC3)c2)c2sc(NC(=O)N3CCC4(CCOCC4)C3)nc12` [Compound 105, 8-Oxa-2-aza-spiro[4.5]decane-2-carboxylic acid (4-methoxy-7-{1-[(S)-1-(tetrahydro-pyran-3-yl)methyl]-1H-pyrazol-4-yl}-thiazolo[4,5-c]pyridin-2-yl)-amide], the half-maximal inhibitory concentration (IC50) at human A2A receptor is less than 0.01 µM; at human A3 receptor, greater than 1 µM; at human A2B receptor, less than 0.1 µM.
For `COc1ncc(-c2cnn(Cc3ccccc3)c2)c2sc(NC(=O)N3CCC4(CCOCC4)C3)nc12` [Compound 76, 8-Oxa-2-aza-spiro[4.5]decane-2-carboxylic acid [7-(1-benzyl-1H-pyrazol-4-yl)-4-methoxy-thiazolo[4,5-c]pyridin-2-yl]-amide], the IC50 was less than 0.01 µM at human A2A receptor, greater than 1 µM on human A3 receptor, less than 0.1 µM at human A1 receptor and less than 0.01 µM at human A2B receptor.
Regarding `COc1ncc(C2=CCOCC2)c2sc(NC(=O)c3ccc([C@@H](C)NC(C)=O)cc3)nc12` [Compound 83, N-[7-(3,6-dihydro-2H-pyran-4-yl)-4-methoxy-[1,3]thiazolo[4,5-c]pyridin-2-yl]-4-[(1R)-1-acetamidoethyl]benzamide], the IC50 at human A2A receptor was less than 0.01 µM; at human A3 receptor, greater than 1 µM; on human A1 receptor it was less than 1 µM; at human A2B receptor it was less than 0.01 µM.
In the case of `COc1ncc(-c2cnn(Cc3cccnc3)c2)c2sc(NC(=O)c3ccc(C(=O)O)cc3)nc12` [Compound 115, 4-[(4-methoxy-7-{1-[(pyridin-3-yl)methyl]-1H-pyrazol-4-yl}-[1,3]thiazolo[4,5-c]pyridin-2-yl)carbamoyl]benzoic acid], the figures for the 50% inhibitory concentration (IC50) on human A2A receptor, on human A3 receptor and on human A2B receptor were less than 0.01 µM, less than 1 µM and less than 0.01 µM, respectively.
Regarding `COc1ncc(C2=CCOCC2)c2sc(NC(=O)c3cnn(Cc4ncc[nH]4)c3)nc12` [Compound 158, 1-(1H-Imidazol-2-ylmethyl)-1H-pyrazole-4-carboxylic acid [7-(3,6-dihydro-2H-pyran-4-yl)-4-methoxy-thiazolo[4,5-c]pyridin-2-yl]-amide], the half-inhibitory concentration (IC50) at human A2A receptor is less than 0.01 µM; on human A3 receptor, greater than 1 µM; at human A2B receptor, less than 0.01 µM.
In the case of `COC(=O)N(C)Cc1ccc(C(=O)Nc2nc3c(OC)ncc(C4=CCOCC4)c3s2)cc1` [Compound 167, {4-[7-(3,6-Dihydro-2H-pyran-4-yl)-4-methoxy-thiazolo[4,5-c]pyridin-2-ylcarbamoyl]-benzyl}-methyl-carbamic acid methyl ester], the 50% inhibitory concentration (IC50) on human A2A receptor is less than 0.01 µM; on human A3 receptor, greater than 1 µM; at human A2B receptor, less than 0.01 µM.
Consider `COc1cnc(N2CCOCC2)c2sc(NC(=O)N3CCC4(CCN(C)C4=O)CC3)nc12` [drawing 186, reference compound], for which the IC50 was less than 0.1 µM at human A2A receptor, greater than 1 µM at human A3 receptor (cAMP) and greater than 1 µM on human A2B receptor.
Consider `COc1ncc(-c2cnn(C[C@H]3CCCCO3)c2)c2sc(NC(=O)N3CCC4(CCOCC4)C3)nc12` [Compound 119, 8-Oxa-2-aza-spiro[4.5]decane-2-carboxylic acid (4-methoxy-7-{1-[(R)-1-(tetrahydro-pyran-2-yl)methyl]-1H-pyrazol-4-yl}-thiazolo[4,5-c]pyridin-2-yl)-amide], for which the IC50 on human A2A receptor was less than 0.01 µM; on human A3 receptor it was greater than 1 µM; on human A2B receptor, less than 0.1 µM.
The like results for `COc1ncc(-c2cnn(C(C)(C)c3ccccc3)c2)c2sc(NC(=O)N3CCC4(CCOCC4)C3)nc12` [Compound 163, 8-Oxa-2-aza-spiro[4.5]decane-2-carboxylic acid {4-methoxy-7-[1-(1-methyl-1-phenyl-ethyl)-1H-pyrazol-4-yl]-thiazolo[4,5-c]pyridin-2-yl}-amide] were, in that order, less than 0.01 µM, greater than 1 µM and less than 0.1 µM.
Take `COc1ncc(-c2cccc(NS(C)(=O)=O)c2)c2sc(NC(=O)N3CCC4(CCOCC4)C3)nc12` [Compound 120, 8-Oxa-2-aza-spiro[4.5]decane-2-carboxylic acid [7-(3-methanesulfonylamino-phenyl)-4-methoxy-thiazolo[4,5-c]pyridin-2-yl]-amide]: the half-inhibitory concentration (IC50) is less than 0.1 µM on human A2A receptor, greater than 1 µM on human A3 receptor and greater than 1 µM on human A1 receptor.
As to `COc1ncc(C2=CCOCC2)c2sc(NC(=O)c3cn[nH]c3)nc12` [Compound 116, N-[7-(3,6-dihydro-2H-pyran-4-yl)-4-methoxy-[1,3]thiazolo[4,5-c]pyridin-2-yl]-1H-pyrazole-4-carboxamide], the 50% inhibitory concentration (IC50) at human A2A receptor was less than 0.01 µM; at human A3 receptor it was less than 1 µM; on human A2B receptor it was less than 0.01 µM.
As for `COc1ncc(-c2cnn(C[C@@H]3CCCCO3)c2)c2sc(NC(=O)N3CCC4(CCOCC4)C3)nc12` [Compound 118, 8-Oxa-2-aza-spiro[4.5]decane-2-carboxylic acid (4-methoxy-7-{1-[(S)-1-(tetrahydro-pyran-2-yl)methyl]-1H-pyrazol-4-yl}-thiazolo[4,5-c]pyridin-2-yl)-amide], the half-maximal inhibitory concentration (IC50) on human A2A receptor is less than 0.01 µM; at human A3 receptor, greater than 1 µM; at human A2B receptor, less than 0.1 µM.
The like results for `COc1ncc(C2=CCOCC2)c2sc(NC(=O)c3ccc(C(=O)NCCN4CCC4)cc3)nc12` [Compound 139, N-(2-Azetidin-1-yl-ethyl)-N′-[7-(3,6-dihydro-2H-pyran-4-yl)-4-methoxy-thiazolo[4,5-c]pyridin-2-yl]-terephthalamide] were, in that order, less than 0.01 µM, greater than 1 µM and less than 0.1 µM.
The like results for `COc1ncc(-c2cnn(C[C@H]3CCCOC3)c2)c2sc(NC(=O)N3CCC4(CCOCC4)C3)nc12` [Compound 104, 8-Oxa-2-aza-spiro[4.5]decane-2-carboxylic acid (4-methoxy-7-{1-[(R)-1-(tetrahydro-pyran-3-yl)methyl]-1H-pyrazol-4-yl}-thiazolo[4,5-c]pyridin-2-yl)-amide] were, in that order, less than 0.01 µM, greater than 1 µM and less than 0.1 µM.
The like results for `COc1ncc(-c2ccccc2)c2sc(NC(=O)c3cn[nH]c3)nc12` [Compound 117, N-{4-methoxy-7-phenyl-[1,3]thiazolo[4,5-c]pyridin-2-yl}-1H-pyrazole-4-carboxamide] were, in that order, less than 0.01 µM, less than 1 µM and less than 0.01 µM.
